Results from US5854029A, “Method for preparing antihypertensive agent” (Calpis Co., Ltd., priority 1996, dated 1998).
Peptide text beside a SMILES is read from it.

Legend:
[1] = target: Angiotensin converting enzyme (ACE) (Homo sapiens, UniProt P12821); conditions: J. Dairy Sci. 78:777-783; cited from earlier work
[2] = test system: spontaneously hypertensive rats (SHR); conditions: J. Dairy Sci. 78:1253-1257; cited from earlier work
[3] = test system: WKY rats showing normal blood pressure; test: One-month continuous oral administration to WKY rats (safety); type: in vivo, rat; conditions: 10 mg/kg body weight/day continuously for one month
From the text: Foods fermented with Lactobacillus bacteria have been eaten by human beings for a long time, and it is therefore assumed that Tyr-Pro contained in the antihypertensive agent of the present invention has no problem in safety.

Angiotensin converting enzyme (ACE), sequence (P12821 30-1306, species assumed): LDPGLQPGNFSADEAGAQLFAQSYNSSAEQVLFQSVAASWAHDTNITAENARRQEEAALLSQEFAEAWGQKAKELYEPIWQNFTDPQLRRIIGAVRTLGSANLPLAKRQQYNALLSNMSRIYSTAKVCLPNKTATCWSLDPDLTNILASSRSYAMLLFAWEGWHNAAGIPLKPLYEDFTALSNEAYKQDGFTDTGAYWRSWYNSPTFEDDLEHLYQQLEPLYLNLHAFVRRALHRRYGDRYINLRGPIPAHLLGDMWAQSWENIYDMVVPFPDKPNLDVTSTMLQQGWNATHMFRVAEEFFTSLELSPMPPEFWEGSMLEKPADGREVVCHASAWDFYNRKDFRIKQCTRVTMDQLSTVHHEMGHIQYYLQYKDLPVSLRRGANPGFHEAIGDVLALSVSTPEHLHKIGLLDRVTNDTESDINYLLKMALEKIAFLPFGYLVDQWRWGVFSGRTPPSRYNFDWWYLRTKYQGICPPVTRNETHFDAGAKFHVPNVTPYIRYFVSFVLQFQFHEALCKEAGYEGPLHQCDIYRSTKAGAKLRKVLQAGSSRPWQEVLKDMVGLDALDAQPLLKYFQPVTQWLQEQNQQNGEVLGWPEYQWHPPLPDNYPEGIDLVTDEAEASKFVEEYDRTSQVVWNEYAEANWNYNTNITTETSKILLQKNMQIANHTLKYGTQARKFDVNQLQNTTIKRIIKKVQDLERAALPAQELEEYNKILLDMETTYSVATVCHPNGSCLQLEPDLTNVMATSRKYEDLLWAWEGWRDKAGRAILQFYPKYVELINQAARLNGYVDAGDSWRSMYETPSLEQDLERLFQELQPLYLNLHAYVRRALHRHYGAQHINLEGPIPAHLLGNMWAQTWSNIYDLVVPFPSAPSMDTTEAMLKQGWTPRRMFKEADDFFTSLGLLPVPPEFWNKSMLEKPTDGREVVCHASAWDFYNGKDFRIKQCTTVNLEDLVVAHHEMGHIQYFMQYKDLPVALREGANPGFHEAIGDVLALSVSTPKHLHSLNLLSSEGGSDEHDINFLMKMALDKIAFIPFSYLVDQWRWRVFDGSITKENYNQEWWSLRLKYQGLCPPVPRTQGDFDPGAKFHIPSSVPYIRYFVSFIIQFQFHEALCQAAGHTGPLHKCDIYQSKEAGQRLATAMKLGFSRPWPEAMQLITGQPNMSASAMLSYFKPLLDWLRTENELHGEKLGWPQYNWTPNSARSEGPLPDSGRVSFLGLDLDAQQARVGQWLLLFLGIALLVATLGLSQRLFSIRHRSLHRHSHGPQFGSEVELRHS

Row | Compound | ACE inhibiting activity (result in words) [1] | Antihypertensive effect in SHR (result in words) [2] | Abnormality in behavior, appearance, blood pressure and autopsy [3]
1 | Ile-Pro-Pro | strong ACE inhibiting activity | strong antihypertensive effect | 
2 | N[C@@H](Cc1ccc(O)cc1)C(=O)N1CCC[C@H]1C(=O)O [Tyr-Pro] (H-Tyr-Pro-OH) |  |  | no abnormality was found
3 | Val-Pro-Pro | strong ACE inhibiting activity | strong antihypertensive effect | 
